We go through 4 compounds from US20080076826A1, “POLYMORPHIC CRYSTAL OF 4'-{2-[ (1S, 2R) - 2- HYDROXY -2- (4-HYDROXYPHENYL) -1- METHYLETHYLAMINO] ETHOXY} - 3 - ISOPROPYL-3', 5' -DIMETHYLBIPHENYL - 4 - CARBOXYLIC ACID HYDROCHLORIDE” (KISSEI PHARMACEUTICAL CO., LTD., priority 2005, published 2008).

Holding throughout (assay type): physicochemical
Data set [1] is described as follows: Solid stability (Test Example 2): purity after storage for 8 weeks under four conditions.
Procedure: Each of (A) the α type crystal of biphenylcarboxylic acid hydrochloride (purity 99.8%) and (B) the γ type crystal of biphenylcarboxylic acid hydrochloride (purity 99.8%) were stored (1) at 40° C. for 8 weeks, (2) at 60° C. for 8 weeks, (3) at 40° C. and at a relative humidity of 75% for 8 weeks and (4) at 40° C. and at a relative humidity of 90% for 8 weeks.
Data set [2] is described as follows: Crystal form stability during preservation under usual conditions or medicine preparation steps. The following applies: preservation under usual conditions (25° C., 60% relative humidity) or during pressurization, pulverization and like preparation steps.
The nature of data set [3]: Solid stability (Test Example 1): purity after storage at 60° C., 75% relative humidity, 5 days. As to conditions: stored at 60° C. and relative humidity of 75% for 5 days; hydrochloride. The method, then: Each of (1) amorphous biphenylcarboxylic acid hydrochloride (purity: 97.22%), (2) α type crystal of biphenylcarboxylic acid hydrochloride (purity: 99.56%) and (3) β type crystal of biphenylcarboxylic acid hydrochloride (purity: 99.84%) was stored at 60° C. and at a relative humidity of 75% for 5 days. Purities after the storage were (1) 94.99%, (2) 99.55% and (3) 99.65%, respectively.

Setting [4] is: stored at 40° C. and relative humidity of 75% for 8 weeks.
The mark [5] stands for this setting: stored at 40° C. and relative humidity of 90% for 8 weeks.

“4′-{2-[(1S,2R)-2-hydroxy-2-(4-hydroxyphenyl)-1-methylethylamino]ethoxy}-3-isopropyl-3′,5′-dimethylbiphenylcarboxylic acid hydrochloride [γ type crystal]”: the “Purity after the storage” value in data set [1] (setting [4]) was found to be 99.87%; in data set [1] (setting [5]), 98.20%; in data set [1] (stored at 40° C. for 8 weeks), 99.82%; in data set [1] (stored at 60° C. for 8 weeks), 99.88%. In addition, the “Change of crystal form” value in data set [2] is recorded as “do not cause mutual changes in the crystal forms”.

For `Cc1cc(-c2ccc(C(=O)O)c(C(C)C)c2)cc(C)c1OCCN[C@@H](C)[C@H](O)c1ccc(O)cc1.Cl` [amorphous biphenylcarboxylic acid hydrochloride] [4′-{2-[(1S,2R)-2-hydroxy-2-(4-hydroxyphenyl)-1-methylethylamino]ethoxy}-3-isopropyl-3′,5′-dimethylbiphenyl-4-carboxylic acid hydrochloride, reference compound], the “Purity after the storage” value in data set [3] is 94.99%.

Turning to `Cc1cc(-c2ccc(C(=O)O)c(C(C)C)c2)cc(C)c1OCCN[C@@H](C)[C@H](O)c1ccc(O)cc1.Cl` [α type crystal, 4′-{2-[(1S,2R)-2-hydroxy-2-(4-hydroxyphenyl)-1-methylethylamino]ethoxy}-3-isopropyl-3′,5′-dimethylbiphenyl-4-carboxylic acid hydrochloride], the “Purity after the storage” value in data set [1] (setting [4]) stood at 99.58%; in data set [1] (setting [5]), 99.51%; in data set [1] (stored at 40° C. for 8 weeks), 99.79%; in data set [1] (stored at 60° C. for 8 weeks), 99.78%; in data set [3], 99.55%. The “Change of crystal form” value in data set [2] is “do not cause mutual changes in the crystal forms”.

As for `Cc1cc(-c2ccc(C(=O)O)c(C(C)C)c2)cc(C)c1OCCN[C@@H](C)[C@H](O)c1ccc(O)cc1.Cl` [β type crystal, 4′-{2-[(1S,2R)-2-hydroxy-2-(4-hydroxyphenyl)-1-methylethylamino]ethoxy}-3-isopropyl-3′,5′-dimethylbiphenyl-4-carboxylic acid hydrochloride], in data set [2], the “Change of crystal form” value is given as “do not cause mutual changes in the crystal forms”. In data set [3], the “Purity after the storage” value turned out to be 99.65%.
